Source: patent US20170121402A1, “ORAL COMPOSITION OF ANTI-TNF ALPHA ANTIBODIES” (Laboratoire Français du Fractionnement et des …, priority 2014, published 2017)

Test system: interleukin-8 (IL-8) secretion by Caco-2 cells
Assay: Anti-inflammatory effect on the Caco-2 line: IL-8 secretion after IL-1 beta activation, ELISA
Assay type: cell-based, human
Details: differentiated Caco-2 cells (14 days), 24 h preculture with test agent, then 1 ng/ml IL-1 beta for 12 hours
From the text: Caco-2 cells, a colon cancer cell line, are an established cell model of the human intestinal epithelium (Pinto et al., 1983, Biol. Cell, 47, 323-330). These cells secrete interleukin-8 (IL-8), which is one of the major interleukins in the pathogenesis of inflammatory bowel diseases, after activation by interleukin-1 beta (IL-1 beta).
The inventors used the Caco-2 cell line as a model of epithelial cells, and evaluated the effect of compositions according to the invention on interleukin-8 (IL-8) secretion by these cells after activation by interleukin-1 beta (IL-1 beta).
To that end, Caco-2 cells, deposited in 24well plates, were cultured for 14 days until the cells were confluent and in a stable differentiation state. On day 14, the cells were precultured in the presence of caprylic acid, transgenically-produced anti-TNF antibody (adalimumab), and a combination of the two. Twenty-four hours later, the cells were stimulated with 1 ng/ml IL-1 beta for 12 hours. IL-8 levels present in the culture supernatants were measured by ELISA.

adalimumab [anti-TNF antibody]
IL-8 levels present in the culture supernatants (IL-8 secretion): induces a decrease in IL-8 levels
